What is called pIC50 is the negative decadic logarithm of the IC50, by convention in mol/L.

We go through 33 compounds from ChEMBL document CHEMBL1143431, “Synthesis and evaluation of pyrazolo[1,5-b]pyridazines as selective cyclin dependent kinase inhibitors” (Bioorg Med Chem Lett, 2008).

pIC50: −log10 of the molar value. Bounds are passed on as bounds.

In data set [1] the target is Cyclin-dependent kinase 2 (Homo sapiens, UniProt P24941). Nature of the data set: Inhibition of human CDK2 by HTRF assay.
Data set [2] has as its target Cyclin-dependent kinase 4 (Homo sapiens, UniProt P11802). Briefly: Inhibition of CDK4 by radioactive glutathione plate-binding assay.
Data set [3] has as its target Glycogen synthase kinase-3 beta (Homo sapiens, UniProt P49841). Briefly: Inhibition of GSK3-beta by scintillation proximity assay. (In a scintillation proximity assay essentially only radioactivity close to the scintillant gives light.)
Data set [4] concerns the target Vascular endothelial growth factor receptor 2 (Homo sapiens, UniProt P35968). Briefly: Inhibition of VEGFR2 by HTRF assay. A general note: TR-FRET usually uses a lanthanide donor and a delayed reading to cut background.
Data set [5] can be described thus: Metabolic stability at mouse liver S9 fraction after 60 mins. It is filed as ADME, subcellular. The note with it: read-out: Stability.
Data set [6] relates to Mus musculus. Briefly: Dose normalized AUC in ip dosed mouse. Type of data set: ADME, organism-based. As to conditions: in vivo.
Data set [7] relates to Mus musculus. Nature of the data set: Dose normalized AUC in orally dosed mouse. Type of data set: ADME, organism-based. The note with it: in vivo, po.

Sequence of Glycogen synthase kinase-3 beta (P49841 whole entry): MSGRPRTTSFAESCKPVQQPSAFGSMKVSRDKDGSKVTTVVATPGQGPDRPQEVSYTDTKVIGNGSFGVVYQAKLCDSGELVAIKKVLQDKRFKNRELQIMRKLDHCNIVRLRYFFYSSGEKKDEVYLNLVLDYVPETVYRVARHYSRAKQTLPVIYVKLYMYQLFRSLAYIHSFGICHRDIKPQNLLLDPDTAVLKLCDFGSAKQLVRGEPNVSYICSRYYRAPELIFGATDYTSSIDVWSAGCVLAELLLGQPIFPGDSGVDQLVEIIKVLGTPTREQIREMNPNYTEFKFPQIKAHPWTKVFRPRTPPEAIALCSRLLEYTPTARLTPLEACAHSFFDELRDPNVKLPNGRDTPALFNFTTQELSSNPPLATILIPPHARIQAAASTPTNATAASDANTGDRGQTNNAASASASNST
Sequence of Cyclin-dependent kinase 4 (P11802 whole entry): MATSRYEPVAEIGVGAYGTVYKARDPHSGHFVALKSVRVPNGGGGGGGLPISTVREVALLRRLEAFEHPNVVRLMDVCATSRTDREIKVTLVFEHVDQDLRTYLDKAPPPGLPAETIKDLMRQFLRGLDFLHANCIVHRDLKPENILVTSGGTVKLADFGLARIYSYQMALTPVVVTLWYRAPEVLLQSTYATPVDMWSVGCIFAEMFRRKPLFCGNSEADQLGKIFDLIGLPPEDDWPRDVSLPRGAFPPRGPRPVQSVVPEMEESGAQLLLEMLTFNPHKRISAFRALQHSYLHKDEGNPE
Sequence of Vascular endothelial growth factor receptor 2 (P35968 whole entry): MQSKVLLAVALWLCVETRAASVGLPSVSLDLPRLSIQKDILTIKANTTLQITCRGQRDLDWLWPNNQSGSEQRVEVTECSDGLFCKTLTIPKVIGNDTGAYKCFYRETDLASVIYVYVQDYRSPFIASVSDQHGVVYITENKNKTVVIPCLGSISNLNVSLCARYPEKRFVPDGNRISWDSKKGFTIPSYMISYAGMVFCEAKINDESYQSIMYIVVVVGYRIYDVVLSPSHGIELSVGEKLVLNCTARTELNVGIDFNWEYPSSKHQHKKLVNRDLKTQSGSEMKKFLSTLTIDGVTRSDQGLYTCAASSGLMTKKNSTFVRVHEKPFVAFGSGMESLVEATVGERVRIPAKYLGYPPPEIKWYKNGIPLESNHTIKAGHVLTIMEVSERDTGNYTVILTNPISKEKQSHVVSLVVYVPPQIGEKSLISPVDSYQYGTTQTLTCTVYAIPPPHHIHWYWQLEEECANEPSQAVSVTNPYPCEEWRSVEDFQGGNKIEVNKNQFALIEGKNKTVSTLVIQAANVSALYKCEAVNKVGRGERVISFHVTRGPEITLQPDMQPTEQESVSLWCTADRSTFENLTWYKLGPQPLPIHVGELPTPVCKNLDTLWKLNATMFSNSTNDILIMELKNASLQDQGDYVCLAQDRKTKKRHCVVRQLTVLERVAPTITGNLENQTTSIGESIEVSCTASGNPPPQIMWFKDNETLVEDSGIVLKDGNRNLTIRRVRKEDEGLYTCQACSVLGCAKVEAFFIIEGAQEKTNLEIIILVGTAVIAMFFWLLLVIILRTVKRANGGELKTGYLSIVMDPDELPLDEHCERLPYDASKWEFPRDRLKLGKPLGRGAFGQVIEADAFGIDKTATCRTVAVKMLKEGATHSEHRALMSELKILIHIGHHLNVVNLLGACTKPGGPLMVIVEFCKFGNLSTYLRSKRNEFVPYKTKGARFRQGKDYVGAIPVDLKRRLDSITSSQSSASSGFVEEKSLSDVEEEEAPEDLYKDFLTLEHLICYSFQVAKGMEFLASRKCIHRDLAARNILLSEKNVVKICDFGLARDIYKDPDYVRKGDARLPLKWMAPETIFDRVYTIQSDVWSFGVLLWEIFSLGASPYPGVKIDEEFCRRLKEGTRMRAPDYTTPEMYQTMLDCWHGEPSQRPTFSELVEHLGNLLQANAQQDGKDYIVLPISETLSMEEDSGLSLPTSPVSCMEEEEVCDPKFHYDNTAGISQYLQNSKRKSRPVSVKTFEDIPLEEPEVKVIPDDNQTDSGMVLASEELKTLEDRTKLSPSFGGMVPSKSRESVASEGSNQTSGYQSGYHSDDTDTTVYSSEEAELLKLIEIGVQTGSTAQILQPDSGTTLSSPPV

As to `FC(F)(F)CNc1nccc(-c2cnn3ncccc23)n1` [GW683003X], the pIC50 in data set [1] was 6.00; in data set [2], 6.00; in data set [3] it was less than 4.49.

Consider `CCN(CC)CCNC(=O)c1cccc(Nc2nccc(-c3cnn4ncccc34)n2)c1`, for which the figures for the pIC50 in data set [1], in data set [2] and in data set [3] were 7.40, 8.10 and 7.70, respectively.

On to `c1cnn2ncc(-c3ccnc(NC4CC4)n3)c2c1`, for which the pIC50 is less than 4.70 in data set [4] and 7.10 in data set [2]. Also, the remaining at 1 h in data set [5] was 85%.

Take `CN1CCN(c2ccc(Nc3nccc(-c4cnn5nc(-c6ccc(F)cc6)ccc45)n3)cc2)CC1`: the pIC50 in data set [1] was 6.13; in data set [2] it was 7.59; in data set [3] it was less than 4.60.

As to `CN1CCN(c2ccc(Nc3nccc(-c4cnn5ncccc45)n3)cc2)CC1`, the pIC50 in data set [1] is 7.00; in data set [4] it was 6.40; in data set [2], 7.92; in data set [3], 6.70.

With `Fc1ccc(-c2ccc3c(-c4ccnc(NC5CC5)n4)cnn3n2)cc1`, the results for the pIC50 in data set [2] and in data set [3] were 6.60 and less than 4.49, respectively.

For the compound `c1cc(Nc2nccc(-c3cnn4ncccc34)n2)cc(-c2cocn2)c1`, the values for the pIC50 in data set [1], in data set [2] and in data set [3] were 8.52, 7.80 and 8.10, respectively.

`O=C(O)c1ccc(Nc2nccc(-c3cnn4ncccc34)n2)cc1`: the pIC50 was 7.40 in data set [1], 6.10 in data set [2] and 7.30 in data set [3].

Consider `CC(C)Oc1ccc2c(-c3ccnc(Nc4ccc(N5CCN(C)CC5)cc4)n3)cnn2n1`, for which the pIC50 was 6.64 in data set [1], 7.35 in data set [2] and 6.07 in data set [3].

Turning to `O=[N+]([O-])c1cccc(Nc2nccc(-c3cnn4ncccc34)n2)c1`, the pIC50 in data set [1] and in data set [2] was 9.52 throughout.

`Cc1nn2ncccc2c1-c1ccnc(NC2CC2)n1`: the pIC50 in data set [4] is less than 4.70; in data set [2], 6.10.

For `CCCCc1nn2ncccc2c1-c1ccnc(NC2CC2)n1`, the pIC50 is 5.60 in data set [4] and less than 4.40 in data set [2].

Regarding `CC(C)c1ccc(Nc2nccc(-c3cnn4ncccc34)n2)cc1` [GW805758X], the pIC50 is 7.40 in data set [1] and 7.80 in data set [3].

For `C=Cc1ccc2c(-c3ccnc(NC4CC4)n3)cnn2n1`, the pIC50 is 6.70 in data set [2] and 5.49 in data set [3].

As to `N#Cc1ccc(Nc2nccc(-c3cnn4ncccc34)n2)cc1`, the pIC50 was 8.70 in data set [1], 7.60 in data set [2] and 8.30 in data set [3].

`N#Cc1cccc(Nc2nccc(-c3cnn4ncccc34)n2)c1` [GW778894X]: the pIC50 in data set [1] is 8.70; in data set [2], 8.40.

With `Oc1ccc2c(-c3ccnc(NC4CC4)n3)cnn2n1`, the pIC50 in data set [2] was 5.89; in data set [3], 4.60.

Consider `CN(C)CC(O)COc1ccc(Nc2nccc(-c3cnn4nc(N5CCOCC5)ccc34)n2)cc1` (stereo not given), for which the AUC with Mus musculus [6] was greater than 7000 ng·kg·h/mg/mL. Further, the pIC50 in data set [2] was 7.42. The remaining at 1 h in data set [5] stood at 46%.

Regarding `CCN(CC)Cc1cccc(Nc2nccc(-c3cnn4ncccc34)n2)c1`, the pIC50 is 7.30 in data set [1], 7.92 in data set [2] and 7.10 in data set [3].

As for `c1cc(-c2cnn3nc(N4CCOCC4)ccc23)nc(NC2CC2)n1` [GW708336X], the pIC50 in data set [2] was 6.40. For the same compound, in the data set with Mus musculus [7], the AUC is greater than 1000 ng·kg·h/mg/mL.

In the case of `CCc1nn2ncccc2c1-c1ccnc(NC2CC2)n1` [GW683768X], the negative logarithm of the IC50 (pIC50) in data set [4] is 5.49; in data set [2], 5.70.

`CCCCc1nn2ncccc2c1-c1ccnc(Nc2ccc(N3CCN(C)CC3)cc2)n1`: the values for the pIC50 in data set [4] and in data set [2] were 7.60 and 6.10, respectively.

Regarding `c1cc(-c2cnn3nc(N4CCCC4)ccc23)nc(NC2CC2)n1`, the results for the pIC50 in data set [2] and in data set [3] were 6.30 and 4.60, respectively.

In the case of `c1csc(-c2ccc3c(-c4ccnc(NC5CC5)n4)cnn3n2)c1`, the pIC50 in data set [2] is 6.60; in data set [3], less than 4.49.

`Cc1nn2ncccc2c1-c1ccnc(Nc2ccc(N3CCN(C)CC3)cc2)n1`: the pIC50 was 7.20 in data set [4] and 7.30 in data set [2].

For the compound `NC(=O)c1ccc(Nc2nccc(-c3cnn4ncccc34)n2)cc1`, the pIC50 was 7.80 in data set [1], 6.80 in data set [2] and 7.70 in data set [3].

Take `COc1ccc2c(-c3ccnc(NC4CC4)n3)cnn2n1`: the pIC50 in data set [2] was 5.70; in data set [3], 4.60.

For `Clc1ccc(CNc2nccc(-c3cnn4ncccc34)n2)cc1` [GW781673X], the pIC50 in data set [1] and in data set [2] was 6.00 each time.

On to `O=[N+]([O-])c1ccc(Nc2nccc(-c3cnn4ncccc34)n2)cc1`, for which the pIC50 in data set [1] was 8.52; in data set [2], 8.10; in data set [3] it was 8.30.

Regarding `CC(C)Oc1ccc2c(-c3ccnc(NC4CC4)n3)cnn2n1`, the pIC50 in data set [2] is 5.80; in data set [3], 4.60. The compound further gave an AUC in the data set on Mus musculus [7] greater than 1000 ng·kg·h/mg/mL.

Regarding `c1cc(-c2cnn3nc(NC4CCCC4)ccc23)nc(NC2CC2)n1`, the pIC50 was 6.80 in data set [2] and 4.60 in data set [3].

For `CCc1nn2ncccc2c1-c1ccnc(Nc2ccc(N3CCN(C)CC3)cc2)n1`, the pIC50 is 7.20 in data set [4] and 7.60 in data set [2].

`c1cnn2ncc(-c3ccnc(NCCCN4CCOCC4)n3)c2c1` [GW683109X]: the pIC50 in data set [2] was 5.49.
